Values quoted from earlier work in PMC8001783, “New Lignanamides with Antioxidant and Anti-Inflammatory Activities Screened Out and Identified from Warburgia ugandensis Combining Affinity Ultrafiltration LC-MS with SOD and XOD Enzymes” (Antioxidants, 2021).

Test system: LPS-induced NO production in RAW 264.7 macrophages
Set-up: method as in doi:10.5012/bkcs.2013.34.10.3105, PMID 29177586, PMID 31888376
Conditions: cited from earlier work

SMILES: O=C(/C=C/c1ccc(O)c(O)c1)NCCc1ccc(O)cc1 [compound 7, N-trans-caffeoyltyramine]
- inhibitory effect against LPS-induced NO production: good inhibitory effects
